Values of other authors in publication PMC3066546, “Development of modified nucleosides that have supremely high anti-HIV activity and low toxicity and prevent the emergence of resistant HIV mutants” (Proceedings of the Japan Academy. Series B, Physical and …, 2011).
Read-outs that look alike come from different tables or passages of the source.

Tests used:
[1] = CEM cells, MT4 cells, MAGI-CCR5 cells
[2] = tested on: RT of the M184V mutant; set-up: method as in PMID 15456247; settings: 4′EddCTP compared with RT of wild-type HIV
[3] = tested on: HIV-1LAI; settings: MTT assay, MT-4 cells
[4] = tested on: HXB2 (wild type HIV); set-up: method as in PMID 11087576, PMID 11577734, PMID 15200030; settings: MAGI assay
[5] = tested on: KH65R drug-resistant HIV; set-up: method as in PMID 11087576, PMID 11577734, PMID 15200030; settings: MAGI assay
[6] = tested on: L74V drug-resistant HIV; set-up: method as in PMID 11087576, PMID 11577734, PMID 15200030; settings: MAGI assay
[7] = tested on: 41/215 drug-resistant HIV; set-up: method as in PMID 11087576, PMID 11577734, PMID 15200030; settings: MAGI assay
[8] = tested on: M184V drug-resistant HIV; set-up: method as in PMID 11087576, PMID 11577734, PMID 15200030; settings: MAGI assay
[9] = tested on: M184I drug-resistant HIV; set-up: method as in PMID 11087576, PMID 11577734, PMID 15200030; settings: MAGI assay
[10] = tested on: 41/69/ 125/SG drug-resistant HIV; set-up: method as in PMID 11087576, PMID 11577734, PMID 15200030; settings: MAGI assay
[11] = tested on: MDR (multidrug-resistant HIV); settings: MAGI assay
[12] = molecular target: Y181C (non-nucleoside reverse transcriptase inhibitor-resistant); set-up: method as in PMID 11087576, PMID 11577734, PMID 15200030; settings: MAGI assay
[13] = tested on: HIV-1 Wild-type; set-up: method as in PMID 563233, PMID 17548498, PMID 18487070; settings: Table 6
[14] = tested on: HIVs isolated from seven heavily drug-experienced patients; set-up: method as in PMID 11302824, PMID 12455229, PMID 15457679; settings: seven heavily drug-experienced AIDS patients, as efficiently as against wild-type HIV
[15] = tested on: MT-4 cells
[16] = tested on: Hela cells; settings: Table 4, Hela cells
[17] = Table 6
[18] = tested on: ICR mice; settings: for Mortality (%): six-week-old ICR male mice
[19] = tested on: adenosine deaminase; settings: 4′EdA to 4′EdI, 4′Ed2AA to 4′EdG
[20] = tested on: adenosine deaminase; set-up: method as in PMID 563233, PMID 17548498, PMID 18487070
[21] = tested on: calf thymus DNA polymerase α; set-up: method as in earlier work; settings: calf thymus enzyme
[22] = tested on: recombinant rat DNA polymerase β; set-up: method as in earlier work; settings: recombinant rat enzyme
[23] = tested on: HIV; set-up: method as in PMID 7764216; settings: Table 1
[24] = set-up: method as in PMID 563233, PMID 17548498, PMID 18487070; settings: acidic conditions of gastric juices (pH 1.06), 24 ℃
[25] = cytotoxic concentration, Table 1
[26] = molecular target: human mitochondrion DNA polymerase (DNA polymerase γ); set-up: method as in PMID 17548498, PMID 18487070; settings: read-out: EC50 to inhibit the incorporation of dATP
[27] = intraveneous administration, 1 mg/Kg
[28] = intraveneous administration, 3 mg/Kg
[29] = intraveneous administration, 10 mg/Kg
[30] = intraveneous administration, 100 mg/Kg

Compound	EC50 [4]	EC50 [5]	EC50 [6]	EC50 [7]	EC50 [8]	EC50 [9]	EC50 [10]	EC50 [11]	EC50 [12]	potency against HIVs isolated from patients [14]	CC50 ([15]; Table 3)	CC50 [16]	Mortality (%) [18, 27]	Mortality (%) [18, 28]	Mortality (%) [18, 29]	Mortality (%) [18, 30]	Mortality (%) ([18]; oral administration, 1 mg/Kg)	Mortality (%) ([18]; oral administration, 3 mg/Kg)	Mortality (%) ([18]; oral administration, 10 mg/Kg)	Mortality (%) ([18]; oral administration, 100 mg/Kg)	further results
3′-azido-3′-deoxythymidine-5′-O-phosphate [AZTTP, reference compound]	–	–	–	–	–	–	–	–	–	–	–	–	–	–	–	–	–	–	–	–	intracellular half-life (T1/2) [1]: 3 h
C#CC1(COP(=O)(O)OP(=O)(O)OP(=O)(O)O)CCC(n2ccc(N)nc2=O)O1 (single isomer, unassigned) [L-isomer of 4′EddCTP]	–	–	–	–	–	–	–	–	–	–	–	–	–	–	–	–	–	–	–	–	activity against RT of the M184V mutant [2]: not active
C#C[C@]1(CO)O[C@@H](n2cnc3c(N)nc(N)nc32)C[C@@H]1O [4′Ed2AA, 2′-deoxy-4′-C-ethynyl-2-aminoadenosine]	1.4 nM	0.35 nM	0.7 nM	1.7 nM	5.9 nM	2.7 nM	4.1 nM	1 nM	0.8 nM	highly potent	820 nM	> 200000 nM	0%	0%	100%	100%	0%	100%	100%	100%	EC50 ([3]; Table 3): 0.3 nM; EC50 [13]: 0.34 nM; CC50 [17]: 900 nM; survival days of mice after administration ([18]; intraveneous, 10 mg/Kg): 2 days; survival days of mice after administration ([18]; intraveneous, 100 mg/Kg): 1 days; survival days of mice after administration ([18]; oral, 3 mg/Kg): 2 days; survival days of mice after administration ([18]; oral, 10 mg/Kg): 2 days; survival days of mice after administration ([18]; oral, 100 mg/Kg): 1 days; conversion by adenosine deaminase in mice [19]: easily converted
C#C[C@]1(CO)O[C@@H](n2cnc3c(N)ncnc32)C[C@@H]1O [4′EdA, 2′-deoxy-4′-C-ethynyladenosine]	8 nM	3.3 nM	4 nM	12 nM	47 nM	22 nM	65 nM	6.2 nM	11 nM	highly potent	16000 nM	> 200000 nM	0%	0%	0%	0%	0%	0%	0%	0%	EC50 ([3]; Table 2): 9.8 nM; time to complete deamination by adenosine deaminase [20]: 60 min; CC50 ([15]; Table 2): 16000 nM; survival of mice ([18]; single dosage of 3–100 mg kg−1, both intravenous and oral): All eight mice survived; conversion by adenosine deaminase in mice [19]: easily converted to 4′EdI
C#C[C@]1(CO)O[C@@H](n2cnc3c(=O)[nH]c(N)nc32)C[C@@H]1O [4′EdG, 2′-deoxy-4′-C-ethynylguanosine]	7 nM	1 nM	1.2 nM	19 nM	8 nM	4.1 nM	6.8 nM	4.8 nM	10 nM	highly potent	1500 nM	52000 nM	0%	100%	100%	100%	0%	100%	100%	100%	EC50 ([3]; Table 3): 1.4 nM; survival days of mice after administration ([18]; intraveneous, 3 mg/Kg): 4 days; survival days of mice after administration ([18]; intraveneous, 10 mg/Kg): 2 days; survival days of mice after administration ([18]; intraveneous, 100 mg/Kg): 1 days; survival days of mice after administration ([18]; oral, 3 mg/Kg): 4 days; survival days of mice after administration ([18]; oral, 10 mg/Kg): 4 days; survival days of mice after administration ([18]; oral, 100 mg/Kg): 1 days
CC1(COP(=O)(O)OP(=O)(O)OP(=O)(O)O)OC(n2ccc(N)nc2=O)C(O)C1O (centres unmarked) [4′MAraCTP]	–	–	–	–	–	–	–	–	–	–	–	–	–	–	–	–	–	–	–	–	chain termination of DNA polymerase α [21]: chain terminator; chain termination of DNA polymerase β [22]: chain terminator
CC1(COP(=O)(O)OP(=O)(O)OP(=O)(O)O)OC(n2ccc(N)nc2=O)CC1O (centres unmarked) [4′MdCTP]	–	–	–	–	–	–	–	–	–	–	–	–	–	–	–	–	–	–	–	–	chain termination of DNA polymerase α [21]: chain terminator; chain termination of DNA polymerase β [22]: chain terminator
Nc1ncnc2c1ncn2[C@H]1CC[C@@H](CO)O1 [ddA, 2′,3′-dideoxyadenosine, reference compound]	–	–	–	–	–	–	–	–	–	–	–	–	–	–	–	–	–	–	–	–	SI (CC50/EC50) [23]: >11; EC50 ([23]; anti-HIV): 47000 nM; time to complete decomposition [24]: 5 min; CC50 [25]: > 500000 nM
Nc1ncnc2c1ncn2[C@H]1CC[C@@H](CO[P@@](=O)(O)O[P@](=O)(O)OP(=O)(O)O)O1 [ddATP, 2′,3′-dideoxyadenosine-5-O-triphosphate, reference compound]	–	–	–	–	–	–	–	–	–	–	–	–	–	–	–	–	–	–	–	–	EC50 [26]: 200 nM
